{"source": "paper PMC10070462", "about": "“Drug cytotoxicity screening using human intestinal organoids propagated with extensive cost-reduction strategies” (Scientific Reports, 2023)", "key": {"hiPSO-derived IECs [1]": {"test_system": "hiPSO-derived IECs", "test": "Cell viability of dispersed hiPSO-derived IECs (CellTiter-Glo 3D)", "details": "for IEC-selective dose-dependent cytotoxicity: dose-dependent analysis, dispersed IECs from hiPSOs and hPIOs versus Caco-2 cells, Fig. 4D; for toxicity against IECs (cell viability): indicated doses, dispersed hiPSO-derived IECs, Fig. 5A, B; for effect of kinase inhibitor on dose-dependent cytotoxicity induced by YC-1: 10 µM inhibitor with 0-30 µM YC-1, 48 h, Fig. 6A-C"}, "hiPSO-derived IECs [2]": {"test_system": "hiPSO-derived IECs"}, "hPIO-derived IECs": {"test_system": "hPIO-derived IECs", "test": "Cell viability of dispersed hPIO-derived IECs (CellTiter-Glo 3D)", "details": "1 µM, 48 h, dispersed IECs of hPIOs, Fig. 4A"}, "Caco-2 cells": {"test_system": "Caco-2 cells", "test": "Cell viability of Caco-2 cells (CellTiter-Glo 3D), counter-assay", "type": "cell-based, human", "details": "dose-dependent analysis, Fig. 4D"}, "[3]": {"test_system": "caspase-8, RIP1, caspase-3, PARP, XIAP in hiPSO-derived IECs", "test": "Western blot analysis of apoptotic proteins in hiPSO-derived IECs", "type": "cell-based, human", "details": "0, 1, 10 µM, 14 h, Fig. 5D", "method": "After the preparation of lysis buffer [50 mM Tris-HCl (pH 8.0), 150 mM NaCl, 1% Triton X-100, 0.5% deoxycholate, 0.1% sodium dodecyl sulfate (SDS), and a protease inhibitor cocktail (Nacalai Tesque)], cell lysates were subjected to SDS-polyacrylamide gel electrophoresis and transferred onto a polyvinylidene difluoride membrane. The membrane was blocked with Blocking One (Nacalai Tesque) for 1 h at room temperature (RT), incubated overnight at 4 °C with primary antibodies against caspase-3 (1:1000), caspase-8 (1:1000), PARP (1:1000), RIP1 (1:1000), XIAP (1:100), and β-actin (1:200), and incubated with secondary antibodies for 1 h at RT. Chemiluminescent signals were determined using Fusion Solo S (Vilber). A pre-stained ladder protein marker (XL-Ladder Broad, APRO Science) that was not visible as a chemiluminescent signal was used to determine the position of molecular weights. Full-scan images were represented in the Supplementary Information."}, "[4]": {"test_system": "CCND1 and VIL1 mRNA in hiPSO-derived IECs", "test": "qRT-PCR of mRNA levels in hiPSO-derived IECs", "type": "cell-based, human", "details": "0, 1, 10 µM, 48 h, Fig. 5E", "method": "Total cellular RNA was extracted using RNeasy Mini Kit (Qiagen). Reverse transcription was performed using a high-capacity cDNA Reverse Transcription Kit (Thermo Fisher Scientific). The mRNA levels were measured by fluorescence real-time PCR on StepOnePlus (Thermo Fisher Scientific) using PrimeTime qPCR Probes (Integrated DNA Technologies). The 18S rRNA levels were used as an internal control to normalize the mRNA levels of each gene."}}, "note": "“Also recorded” adds a separate entry of the source. Where two headings read alike, the source gives them in different places."}
{"smiles": "CC1=C(/C=C/C(C)=C/C=C/C(C)=C/C(=O)Nc2ccc(O)cc2)C(C)(C)CCC1", "note": "[4-HPR, N-(4-hydroxyphenyl)retinamide]", "values": [{"measurement": "IEC-selective dose-dependent cytotoxicity", "setting": "hiPSO-derived IECs [1]", "result": "identified"}]}
{"smiles": "CN(C)CC[C@H](CSc1ccccc1)Nc1ccc(S(=O)(=O)NC(=O)c2ccc(N3CCN(Cc4ccccc4-c4ccc(Cl)cc4)CC3)cc2)cc1[N+](=O)[O-]", "note": "[ABT-737]", "values": [{"measurement": "IEC-selective dose-dependent cytotoxicity", "setting": "hiPSO-derived IECs [1]", "result": "identified"}]}
{"smiles": "COC(=O)c1ccc(O)c(NC(=O)COc2ccc(C34CC5CC(CC(C5)C3)C4)cc2)c1", "note": "[LW6]", "values": [{"measurement": "toxicity against IECs (cell viability)", "setting": "hiPSO-derived IECs [1]; 48 h", "result": "little toxicity"}]}
{"smiles": "CCCCCCCC/C=C\\CCCCCCCC(=O)NCCc1ccc(O)c(O)c1", "note": "[N-oleoyldopamine]", "values": [{"measurement": "IEC-selective dose-dependent cytotoxicity", "setting": "hiPSO-derived IECs [2]", "result": "identified"}]}
{"smiles": "COc1cccc(-c2cc(=O)c3ccccc3o2)c1N", "note": "[PD98059]", "values": [{"measurement": "inhibition of cytotoxicity of 1 µM YC-1", "setting": "hiPSO-derived IECs [1]; 0-30 µM PD98059 with 1 µM YC-1, 48 h, Fig. 6D", "result": "in a dose-dependent manner"}, {"measurement": "inhibition of cytotoxicity caused by 4-HPR", "setting": "hiPSO-derived IECs [1]; 10 µM PD98059 with 0-30 µM 4-HPR, 48 h, Fig. 6F", "result": "failed to inhibit"}, {"measurement": "inhibition of cytotoxicity caused by ABT-737", "setting": "hiPSO-derived IECs [1]; 10 µM PD98059 with 0-30 µM ABT-737, 48 h, Fig. 6E", "result": "failed to inhibit"}, {"measurement": "inhibition of cytotoxicity caused by N-oleoyldopamine", "setting": "hiPSO-derived IECs [1]; 10 µM PD98059 with 0-30 µM N-oleoyldopamine, 48 h, Fig. 6H", "result": "failed to inhibit"}, {"measurement": "inhibition of cytotoxicity caused by ivermectin", "setting": "hiPSO-derived IECs [1]; 10 µM PD98059 with 0-30 µM ivermectin, 48 h, Fig. 6G", "result": "failed to inhibit"}, {"measurement": "inhibition of YC-1-induced cytotoxicity in IECs from hiPSOs expanded with Matrigel", "setting": "hiPSO-derived IECs [1]; 10 µM PD98059 with 1 µM YC-1, 48 h, Figure S5", "result": "inhibited"}, {"measurement": "effect of kinase inhibitor on dose-dependent cytotoxicity induced by YC-1", "setting": "hiPSO-derived IECs [1]", "result": "substantially prevented"}]}
{"smiles": "CS(=O)(=O)c1ccc(Oc2cc(F)cc(C#N)c2)c2c1[C@H](O)C(F)(F)C2", "note": "[PT-2385]", "values": [{"measurement": "toxicity against IECs (cell viability)", "setting": "hiPSO-derived IECs [1]; 48 h", "result": "little toxicity"}]}
{"smiles": "C[S+]([O-])c1ccc(-c2nc(-c3ccncc3)c(-c3ccc(F)cc3)[nH]2)cc1", "note": "(stereo not drawn) [SB203580]", "values": [{"measurement": "effect of kinase inhibitor on dose-dependent cytotoxicity induced by YC-1", "setting": "hiPSO-derived IECs [1]", "result": "almost no effect"}]}
{"smiles": "CCc1c2c(nc3ccc(O)cc13)-c1cc3c(c(=O)n1C2)COC(=O)[C@]3(O)CC", "note": "[SN-38]", "values": [{"measurement": "cytotoxic effect (cell viability)", "setting": "hiPSO-derived IECs [2]", "result": "confirmed"}, {"measurement": "cytotoxic effect (cell viability)", "setting": "hPIO-derived IECs", "result": "confirmed"}]}
{"smiles": "Oc1c2ccccc2c2c3c(cccc13)N=N2", "note": "[SP600125]", "values": [{"measurement": "effect of kinase inhibitor on dose-dependent cytotoxicity induced by YC-1", "setting": "hiPSO-derived IECs [1]", "result": "almost no effect"}]}
{"smiles": "OCc1ccc(-c2nn(Cc3ccccc3)c3ccccc23)o1", "note": "[YC-1, 3-(5′-hydroxymethyl-2′-furyl)-1-benzyl indazole]", "values": [{"measurement": "cytotoxicity against Caco-2 cells", "setting": "Caco-2 cells", "result": "least cytotoxicity; also recorded: very little"}, {"measurement": "anti-apoptotic protein XIAP level", "setting": "[3]", "result": "decreased"}, {"measurement": "cleavage of caspase-8, RIP1, caspase-3 and PARP", "setting": "[3]", "result": "dose-dependently induced the cleavage"}, {"measurement": "CCND1 mRNA levels", "setting": "[4]", "result": "downregulated"}, {"measurement": "VIL1 mRNA levels", "setting": "[4]", "result": "downregulated"}, {"measurement": "IEC-selective dose-dependent cytotoxicity", "setting": "hiPSO-derived IECs [2]", "result": "identified"}, {"measurement": "cytotoxicity against IECs", "setting": "hiPSO-derived IECs [2]", "result": "significant cytotoxicity"}]}
{"smiles": "COC(=O)Nc1c(N)nc(-c2nn(Cc3ccccc3F)c3ncc(F)cc23)nc1N", "note": "[vericiguat]", "values": [{"measurement": "toxicity against IECs (cell viability)", "setting": "hiPSO-derived IECs [1]; 48 h", "result": "little toxicity"}]}
